Our source for the IC50 values is patent US10946109B2, “Polymer-type fluorescent molecule probe” (HIROSHI MAEDA, priority 2011, dated 2021).

In the experiment the test system is Human pancreatic cancer cells PC1.0. Nature of the experiment: cells. As to conditions: light or radiation study.

Method: Human pancreatic cancer cells PC1.0 were plated in 96 well culture plate at 1000 cells/well and cultured overnight. Then, methylene blue (MB) or SMA-methylene blue (SMA-MB) micelle was added to the cultured cells above, and allowed to culture another 48 hours. Light irradiation was carried out using tungsten xenon lamp at 15 cm distance from the cell surface for 20 min. Then, the survival rate of the cells was quantified by MTT Method.

For the molecule `CN(C)c1ccc2nc3ccc(=[N+](C)C)cc-3sc2c1` [Methylene blue, methylene blue], it took 500 nM to reach half-maximal inhibition (IC50). For the setting “48 h”, this molecule showed an IC50 of 4500 nM.

Usually IC50 stands for the concentration that inhibits the measured activity by half. Read a high IC50 as lower potency.
